Laboratory results published in patent publication US20180250260A1, “METHODS FOR TREATING CANCER” (BOSTON BIOMEDICAL, INC., priority 2015, published 2018).

Tests used:
[1] = Phase Ib open-label multi-center study, safety and tolerability (adverse events); assay type: in vivo, human; conditions: 240 mg BID with FOLFIRI, with and without bevacizumab
Procedure: The effects of 2-acetylnaphtho[2,3-b]furan-4,9-dione in combination with FOLFIRI in patients with advanced gastrointestinal cancer, including CRC and gastric cancer, were studied in phase lb open-label, multi-center studies. In one phase lb open label, multi-center clinical study, the safety, tolerability, and preliminary anti-tumor activity of 2-acetylnaphtho[2,3-b]furan-4,9-dione in combination with FOLFIRI, with and without bevacizumab, were assessed in adult patients with advanced gastrointestinal cancer, including CRC and gastric cancer. In addition, the pharmacokinetic profile and the pharmacodynamics (biomarkers) of 2-acetylnaphtho[2,3-b]furan-4,9-dione in combination with FOLFIRI, with and without bevacizumab, were studied, and the recommended phase II dose (RP2D) of 2-acetylnaphtho[2,3-b]furan-4,9-dione and FOLFIRI, with or without bevacizumab, were evaluated.
Patients received continuous oral administration of 2-acetylnaphtho[2,3-b]furan-4,9-dione twice daily in 28 day cycles. A FOLFIRI regimen was administered (with or without bevacizumab depending on patient) every 14 days. Specifically, 2-acetylnaphtho[2,3-b]furan-4,9-dione was administered at a dose of 240 mg BID in combination with FOLFIRI (5-FU 400 mg/m^2 bolus with 2400 mg/m^2, irinotecan 180 mg/m^2, and leucovorin 400 mg/m^2 infusion) with or without bevacizumab 5 mg/kg, administered bi-weekly until progression of disease, unacceptable toxicity, or other discontinuation criterion was met.

cancer stem cells = test: Effect on cancer stem cells with and without 5-fluorouracil; assay type: cell-based; conditions: FIG. 5
Source text: The effects of 2-acetylnaphtho[2,3-b]furan-4,9-dione was examined in cancer stem cells with and without 5-fluorouracil by using methods similar to those disclosed in U.S. pre-grant Publication No. 2012/0252763, Example 3.

[2] = N = 18, possibly/probably/definitely related

Compound: CC(=O)c1cc2c(o1)C(=O)c1ccccc1C2=O [2-acetylnaphtho[2,3-b]furan-4,9-dione]
- Dehydration Grade 3 related to protocol therapy, number of patients [1]: 1
- dose limiting toxicity or new adverse events [1]: No dose limiting toxicity or new adverse events were seen
- safety of the combination [1]: safely combined
- Abdominal Pain Grade 1, number of subjects [1, 2]: 7
- Abdominal Pain Grade 1, percent of total subjects [1, 2]: 38.9%
- Abdominal Pain Grade 2, number of subjects [1, 2]: 4
- Abdominal Pain Grade 2, percent of total subjects [1, 2]: 22.2%
- Abdominal Pain Grade 3, number of subjects [1, 2]: 0
- Abdominal Pain Grade 3, percent of total subjects [1, 2]: 0.0%
- Alopeda Grade 1, number of subjects [1, 2]: 4
- Alopeda Grade 1, percent of total subjects [1, 2]: 22.2%
- Alopeda Grade 2, number of subjects [1, 2]: 0
- Alopeda Grade 2, percent of total subjects [1, 2]: 0.0%
- Alopeda Grade 3, number of subjects [1, 2]: 0
- Alopeda Grade 3, percent of total subjects [1, 2]: 0.0%
- Anemia Grade 1, number of subjects [1, 2]: 2
- Anemia Grade 1, percent of total subjects [1, 2]: 11.1%
- Anemia Grade 2, number of subjects [1, 2]: 2
- Anemia Grade 2, percent of total subjects [1, 2]: 11.1%
- Anemia Grade 3, number of subjects [1, 2]: 0
- Anemia Grade 3, percent of total subjects [1, 2]: 0.0%
- Anorexia Grade 1, number of subjects [1, 2]: 12
- Anorexia Grade 1, percent of total subjects [1, 2]: 66.7%
- Anorexia Grade 2, number of subjects [1, 2]: 3
- Anorexia Grade 2, percent of total subjects [1, 2]: 16.7%
- Anorexia Grade 3, number of subjects [1, 2]: 0
- Anorexia Grade 3, percent of total subjects [1, 2]: 0.0%
- Diarrhea Grade 1, number of subjects [1, 2]: 18
- Diarrhea Grade 1, percent of total subjects [1, 2]: 100.0%
- Diarrhea Grade 2, number of subjects [1, 2]: 9
- Diarrhea Grade 2, percent of total subjects [1, 2]: 50.0%
- Diarrhea Grade 3, number of subjects [1, 2]: 3
- Diarrhea Grade 3, percent of total subjects [1, 2]: 16.7%
- Dry Mouth Grade 1, number of subjects [1, 2]: 2
- Dry Mouth Grade 1, percent of total subjects [1, 2]: 11.1%
- Dry Mouth Grade 2, number of subjects [1, 2]: 1
- Dry Mouth Grade 2, percent of total subjects [1, 2]: 5.6%
- Dry Mouth Grade 3, number of subjects [1, 2]: 0
- Dry Mouth Grade 3, percent of total subjects [1, 2]: 0.0%
- Dysgeusia Grade 1, number of subjects [1, 2]: 5
- Dysgeusia Grade 1, percent of total subjects [1, 2]: 27.8%
- Dysgeusia Grade 2, number of subjects [1, 2]: 0
- Dysgeusia Grade 2, percent of total subjects [1, 2]: 0.0%
- Dysgeusia Grade 3, number of subjects [1, 2]: 0
- Dysgeusia Grade 3, percent of total subjects [1, 2]: 0.0%
- Fatigue Grade 1, number of subjects [1, 2]: 12
- Fatigue Grade 1, percent of total subjects [1, 2]: 66.7%
- Fatigue Grade 2, number of subjects [1, 2]: 10
- Fatigue Grade 2, percent of total subjects [1, 2]: 55.6%
- Fatigue Grade 3, number of subjects [1, 2]: 3
- Fatigue Grade 3, percent of total subjects [1, 2]: 16.7%
- Flatulence Grade 1, number of subjects [1, 2]: 2
- Flatulence Grade 1, percent of total subjects [1, 2]: 11.1%
- Flatulence Grade 2, number of subjects [1, 2]: 1
- Flatulence Grade 2, percent of total subjects [1, 2]: 5.6%
- Flatulence Grade 3, number of subjects [1, 2]: 0
- Flatulence Grade 3, percent of total subjects [1, 2]: 0.0%
- Nausea Grade 1, number of subjects [1, 2]: 14
- Nausea Grade 1, percent of total subjects [1, 2]: 77.8%
- Nausea Grade 2, number of subjects [1, 2]: 6
- Nausea Grade 2, percent of total subjects [1, 2]: 33.3%
- Nausea Grade 3, number of subjects [1, 2]: 0
- Nausea Grade 3, percent of total subjects [1, 2]: 0.0%
- Neutropenia Grade 1, number of subjects [1, 2]: 3
- Neutropenia Grade 1, percent of total subjects [1, 2]: 16.7%
- Neutropenia Grade 2, number of subjects [1, 2]: 2
- Neutropenia Grade 2, percent of total subjects [1, 2]: 11.1%
- Neutropenia Grade 3, number of subjects [1, 2]: 0
- Neutropenia Grade 3, percent of total subjects [1, 2]: 0.0%
- Platelet Count Grade 1, number of subjects [1, 2]: 2
- Platelet Count Grade 1, percent of total subjects [1, 2]: 11.1%
- Platelet Count Grade 2, number of subjects [1, 2]: 0
- Platelet Count Grade 2, percent of total subjects [1, 2]: 0.0%
- Platelet Count Grade 3, number of subjects [1, 2]: 0
- Platelet Count Grade 3, percent of total subjects [1, 2]: 0.0%
- Urine Discolorization Grade 1, number of subjects [1, 2]: 4
- Urine Discolorization Grade 1, percent of total subjects [1, 2]: 22.2%
- Urine Discolorization Grade 2, number of subjects [1, 2]: 0
- Urine Discolorization Grade 2, percent of total subjects [1, 2]: 0.0%
- Urine Discolorization Grade 3, number of subjects [1, 2]: 0
- Urine Discolorization Grade 3, percent of total subjects [1, 2]: 0.0%
- Vomiting Grade 1, number of subjects [1, 2]: 11
- Vomiting Grade 1, percent of total subjects [1, 2]: 61.1%
- Vomiting Grade 2, number of subjects [1, 2]: 3
- Vomiting Grade 2, percent of total subjects [1, 2]: 16.7%
- Vomiting Grade 3, number of subjects [1, 2]: 0
- Vomiting Grade 3, percent of total subjects [1, 2]: 0.0%
- Weight Loss Grade 1, number of subjects [1, 2]: 2
- Weight Loss Grade 1, percent of total subjects [1, 2]: 11.1%
- Weight Loss Grade 2, number of subjects [1, 2]: 0
- Weight Loss Grade 2, percent of total subjects [1, 2]: 0.0%
- Weight Loss Grade 3, number of subjects [1, 2]: 0
- Weight Loss Grade 3, percent of total subjects [1, 2]: 0.0%
- 5-fluorouracil-induced increase in the number of cancer stem cells (cancer stem cells; added to 5-fluorouracil): attenuated
- effect of the combination on cancer stem cell growth (cancer stem cells; combination with 5-fluorouracil): greater than additive effect
